Experimental findings from EPA's ToxValDB 9.5 (doi:10.2903/j.efsa.2013.3111) are described below.

One series relates to Typhlodromus pyri. Nature of the series: LR50; higher = less toxic. The note with it: duration: 7 days, mortality.
Another series deals with Colinus virginianus. The note with it: acute, oral, mortality.
A further series concerns Apis mellifera. Conditions: acute; duration: 48 hours; oral; unspecified; mortality.
A further series deals with Bibionidae. The note with it: chronic/long-term; duration: 28 days; other.
The test system of the next series is Daphnia magna. Conditions: chronic/long-term; duration: 21 days; reproduction.

Converted amounts (≈) assume the structure as drawn.

Consider `CC(C)CC(C)c1sccc1NC(=O)c1cn(C)nc1C(F)(F)F` (stereo unspecified) [Penthiopyrad], for which the LR50 was found to be 238 g/ha in the series with Typhlodromus pyri (acute) and 124 g/ha in the series on Typhlodromus pyri (chronic/long-term). For the same compound, in the series with Anas platyrhynchos (reproductive, reproduction), the lowest observed adverse effect level (LOAEL) (commonly the lowest dose or exposure tested at which an adverse effect was seen) amounted to 719 mg/kg-day. In addition, the NOAEL (in general, the highest dose or exposure tested at which no adverse effect was seen) is 207 mg/kg-day in the series with Anas platyrhynchos (reproductive, reproduction) and 54 mg/kg-day in the series on Rattus norvegicus (chronic, body weight). For the same compound, the LC50 in the series on Anas platyrhynchos (short-term, oral, feed, no effects) is > 5790 mg/kg-day; in the series on Pimephales promelas (acute, duration: 96 hours, mortality), 0.29 µg/mL (≈ 0.807 µM); in the series with Tagia sp. (acute, duration: 14 days, mortality), > 1000 mg/kg. The LD50 in the series on Colinus virginianus (diet) was > 1910 mg/kg-day; in the series on Colinus virginianus, > 2250 mg/kg-day; with Apis mellifera, > 500 µg/piece; with Rattus norvegicus (acute, oral, mortality) it was > 2000 mg/kg. For the same compound, the NOAEC was determined as 50 mg/kg in the series on Bibionidae; 51 µg/L in the series on Pimephales promelas (chronic/long-term, duration: 33 days, growth); 471 µg/L with Daphnia magna. Also, in the series with Tagia sp. (chronic/long-term, duration: 56 days, reproduction), the NOEC was ≥ 48 mg/kg.
